Target: T1, recombinant human heparanase (Homo sapiens, UniProt Q9Y251)
T1 sequence (Q9Y251 158-543 limits assumed): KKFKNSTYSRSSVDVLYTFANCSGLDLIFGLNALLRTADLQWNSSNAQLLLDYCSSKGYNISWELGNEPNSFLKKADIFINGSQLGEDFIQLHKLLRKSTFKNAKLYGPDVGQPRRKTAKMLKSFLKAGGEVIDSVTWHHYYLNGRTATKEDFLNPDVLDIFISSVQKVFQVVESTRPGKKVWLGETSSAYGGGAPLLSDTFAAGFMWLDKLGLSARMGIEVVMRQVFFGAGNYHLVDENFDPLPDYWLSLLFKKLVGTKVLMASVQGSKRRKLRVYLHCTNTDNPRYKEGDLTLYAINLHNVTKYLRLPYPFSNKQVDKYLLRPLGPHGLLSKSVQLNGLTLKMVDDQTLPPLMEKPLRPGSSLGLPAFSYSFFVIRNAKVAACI
T1 sequence (Q9Y251 36-109 limits assumed): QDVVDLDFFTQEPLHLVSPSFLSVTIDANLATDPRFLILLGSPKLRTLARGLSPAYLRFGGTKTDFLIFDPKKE
Assay: Heparanase activity on sulfate labeled ECM substrate
Format: biochemical
Settings: compound at 5 μg/ml; recombinant human heparanase 10 ng/ml, 37° C., pH 6.0, 4 h; control (enzyme alone) = 100
Protocol: Sulfated compound was tested at two concentrations (1 & 5 μg/ml) for its ability to inhibit the heparanase enzyme, using metabolically sulfate labeled ECM as a substrate. Briefly, sulfate labeled ECM coating the surface of 35-mm tissue culture dishes, is incubated (37° C., pH 6.0, 4 h, 1 ml final volume) with recombinant human heparanase (10 ng/ml) in the absence and presence of increasing amounts of each compound. The reaction mixture contains: 50 mM NaCl, 1 mM DTT, 1 mM CaCl2, and 10 mM buffer Phosphate-Citrate, pH 6.0. To evaluate the occurrence of proteoglycan degradation, the incubation medium is collected and applied for gel filtration on Sepharose 6B columns (0.9×30 cm). Fractions (0.2 ml) are eluted with PBS at a flow rate of 5 ml/h and counted for radioactivity. The excluded volume (VO) is marked by blue dextran and the total included volume (Vt) by phenol red. Degradation fragments of HS side chains are eluted at 0.5<Kav<0.8 (peak II). Results are best presented as the actual gel filtration profiles. Numerical values derived from these graphs are presented in FIG. 1 as heparanase activity (% of control), where: Heparanase activity=Kav×total cpm in peak II (fractions 15-35). Kav=(Ve−Vo/Vt−Vo). • Control Kay=Kay obtained in the presence of enzyme alone (without inhibitors). Effect of Sulfated Malto-Oligosaccharides Mimics (MOS) on Hpa Activity—Tables 1 and 2.

Heparanase activity (5 μg/ml): 27 % of control
Substance: Maltohexaose sulfate [MHS]

Reference: US8853387B2, “Mimetics of sulfated oligosaccharides” (Istituto di Ricerche Chimiche e Biochimiche “G. Ronzoni”, priority 2008, dated 2014)
